US20100227887A1 (priority 2009, published 2010)

Experiments:
human mGlu 5a receptor = biological target: T1, human mGlu 5a receptor (Homo sapiens, UniProt P41594); test: [3H]MPEP competition binding on membranes of EBNA cells transfected with human mGlu 5a receptor; details: [3H]MPEP (2 nM) competition, 1 h at 4° C., EBNA cell membranes
T1 construct: expressed in transfected cells; host or cells: EBNA cells (transient transfection); cell membrane homogenates
Procedure: The pharmacological activity of the compounds was tested using the following method: For binding experiments, cDNA encoding human mGlu 5a receptor was transiently transfected into EBNA cells using a procedure described by Schlaeger and Christensen [Cytotechnology 15:1-13 (1998)]. Cell membrane homogenates were stored at −80° C. until the day of assay where upon they were thawed and resuspended and polytronised in 15 mM Tris-HCl, 120 mM NaCl, 100 mM KCl, 25 mM CaCl2, 25 mM MgCl2 binding buffer at pH 7.4 to a final assay concentration of 20 μg protein/well.
Saturation isotherms were determined by addition of twelve [^3H]MPEP concentrations (0.04-100 nM) to these membranes (in a total volume of 200 μl) for 1 h at 4° C. Competition experiments were performed with a fixed concentration of [^3H]MPEP (2 nM) and IC50 values of test compounds evaluated using 11 concentrations (0.3-10,000 nM). Incubations were performed for 1 h at 4° C.
At the end of the incubation, membranes were filtered onto unifilter (96-well white microplate with bonded GF/C filter preincubated 1 h in 0.1% PEI in wash buffer, Packard Bio-Science, Meriden, Conn.) with a Filtermate 96 harvester (Packard BioScience) and washed 3 times with cold 50 mM Tris-HCl, pH 7.4 buffer. Nonspecific binding was measured in the presence of 10 μM MPEP. The radioactivity on the filter was counted (3 min) on a Packard Top-count microplate scintillation counter with quenching correction after addition of 45 μl of microscint 40 (Canberra Packard S. A., Zürich, Switzerland) and shaking for 20 min.
For binding experiments the Ki values of the compounds tested are given. The Ki value is defined by the following formula: […]
in which the IC50 values are those concentrations of the compounds tested which cause 50% inhibition of the competing radioligand ([^3H]MPEP). L is the concentration of radioligand used in the binding experiment and the Kd value of the radioligand is empirically determined for each batch of membranes prepared.

T1 sequence (P41594 21-1180 isoform P41594-2 limits assumed): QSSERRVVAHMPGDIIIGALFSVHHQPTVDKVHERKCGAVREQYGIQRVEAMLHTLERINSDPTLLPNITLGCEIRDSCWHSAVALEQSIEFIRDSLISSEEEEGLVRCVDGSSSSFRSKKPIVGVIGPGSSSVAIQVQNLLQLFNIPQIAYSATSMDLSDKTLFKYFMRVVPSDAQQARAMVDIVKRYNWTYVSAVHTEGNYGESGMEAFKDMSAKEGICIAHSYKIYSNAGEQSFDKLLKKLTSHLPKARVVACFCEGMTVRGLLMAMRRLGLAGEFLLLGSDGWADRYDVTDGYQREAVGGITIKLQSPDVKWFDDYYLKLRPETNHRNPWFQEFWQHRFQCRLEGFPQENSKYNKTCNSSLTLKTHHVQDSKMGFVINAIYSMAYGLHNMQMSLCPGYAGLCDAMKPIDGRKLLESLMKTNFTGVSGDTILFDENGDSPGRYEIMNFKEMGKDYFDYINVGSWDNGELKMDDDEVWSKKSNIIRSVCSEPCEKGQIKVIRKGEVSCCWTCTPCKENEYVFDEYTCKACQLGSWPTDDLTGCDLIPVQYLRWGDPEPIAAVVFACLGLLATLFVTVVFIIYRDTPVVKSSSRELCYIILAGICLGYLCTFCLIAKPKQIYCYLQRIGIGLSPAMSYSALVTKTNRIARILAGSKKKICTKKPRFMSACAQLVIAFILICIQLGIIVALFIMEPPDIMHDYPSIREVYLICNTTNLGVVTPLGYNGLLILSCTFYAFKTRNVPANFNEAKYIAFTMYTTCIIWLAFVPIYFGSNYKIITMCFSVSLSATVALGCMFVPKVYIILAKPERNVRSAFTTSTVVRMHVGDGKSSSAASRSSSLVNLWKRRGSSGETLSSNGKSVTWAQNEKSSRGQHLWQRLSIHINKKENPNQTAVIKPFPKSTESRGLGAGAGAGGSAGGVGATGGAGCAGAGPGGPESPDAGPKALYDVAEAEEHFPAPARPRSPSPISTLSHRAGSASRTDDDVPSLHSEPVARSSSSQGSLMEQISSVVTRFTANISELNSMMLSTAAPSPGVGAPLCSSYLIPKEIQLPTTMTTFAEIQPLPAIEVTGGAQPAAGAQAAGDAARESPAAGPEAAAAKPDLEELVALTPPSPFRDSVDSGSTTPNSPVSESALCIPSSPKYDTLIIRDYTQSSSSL

| SMILES | melting point [°C] | Ki (human mGlu 5a receptor) [nM] |
| --- | --- | --- |
| Cc1cc(Cl)cc(C(=O)Nc2cccc(Cl)n2)n1 [Example 35, 4-Chloro-6-methyl-pyridine-2-carboxylic acid (6-chloro-pyridin-2-yl)-amide] | 176 | 34 |
| N#Cc1cc(C(=O)Nc2ccc(F)cn2)nc(C(F)(F)F)c1 [Example 16, 4-Cyano-6-trifluoromethyl-pyridine-2-carboxylic acid (5-fluoro-pyridin-2-yl)-amide] | 186.5 | 139 |
| Cc1cc(C#N)cc(C(=O)Nc2ccc(F)c(F)c2)n1 [Example 42, 4-Cyano-6-methyl-pyridine-2-carboxylic acid (3,4-difluoro-phenyl)-amide] | 170 | 117 |
| Cc1cc(C#N)c(C)c(C(=O)Nc2ccn(C)n2)n1 [Example 12, 4-Cyano-3,6-dimethyl-pyridine-2-carboxylic acid (1-methyl-1H-pyrazol-3-yl)-amide] | 180.5 | 143 |
| Cc1cc(C#N)cc(C(=O)Nc2cccc(C(F)(F)F)c2)n1 [Example 44, 4-Cyano-6-methyl-pyridine-2-carboxylic acid (3-trifluoromethyl-phenyl)-amide] | 167 | 42 |
| Cc1cc(C#N)cc(C(=O)Nc2ccn(C)n2)n1 [Example 1, 4-Cyano-6-methyl-pyridine-2-carboxylic acid (1-methyl-1H-pyrazol-3-yl)-amide] | 201 | 38 |
| Cc1cc(Br)cc(C(=O)Nc2ccc(F)cn2)n1 [Example 8, 4-Bromo-6-methyl-pyridine-2-carboxylic acid (5-fluoro-pyridin-2-yl)-amide] | 160 | 37 |
| Cc1cccc(NC(=O)c2cc(Cl)cc(C)n2)c1 [Example 51, 4-Chloro-6-methyl-pyridine-2-carboxylic acid m-tolylamide] | 95 | 97 |
| CCc1cc(C#N)cc(C(=O)Nc2ccn(C)n2)n1 [Example 24, 4-Cyano-6-ethyl-pyridine-2-carboxylic acid (1-methyl-1H-pyrazol-3-yl)-amide] | 164.5 | 36 |
| Cc1cc(NC(=O)c2cc(C#N)cc(C)n2)ccn1 [Example 50, 4-Cyano-6-methyl-pyridine-2-carboxylic acid (2-methyl-pyridin-4-yl)-amide] | 302 | 99 |
| N#Cc1cc(CO)nc(C(=O)Nc2ccc(F)cn2)c1 [Example 46, 4-Cyano-6-hydroxymethyl-pyridine-2-carboxylic acid (5-fluoro-pyridin-2-yl)-amide] | 232.5 | 111 |
| Cc1cc(C#N)cc(C(=O)Nc2ccc(F)c(C)c2)n1 [Example 49, 4-Cyano-6-methyl-pyridine-2-carboxylic acid (4-fluoro-3-methyl-phenyl)-amide] | 177 | 72 |

Compounds with a lower Ki (human mGlu 5a receptor), results first:

| melting point [°C] | Ki (human mGlu 5a receptor) [nM] | SMILES |
| --- | --- | --- |
| 183.5 | 11 | CCc1cc(C#N)cc(C(=O)Nc2ccc(F)cn2)n1 [Example 25, 4-Cyano-6-ethyl-pyridine-2-carboxylic acid (5-fluoro-pyridin-2-yl)-amide] |
| 196 | 11 | Cc1ccc(NC(=O)c2cc(C#N)cc(C)n2)nc1 [Example 5, 4-Cyano-6-methyl-pyridine-2-carboxylic acid (5-methyl-pyridin-2-yl)-amide] |
| 204 | 27 | Cc1cc(C#N)cc(C(=O)Nc2ccc(F)c(Cl)c2)n1 [Example 38, 4-Cyano-6-methyl-pyridine-2-carboxylic acid (3-chloro-4-fluoro-phenyl)-amide] |
| 238.5 | 25 | Cc1cc(C#N)cc(C(=O)Nc2ccnc(Cl)c2)n1 [Example 22, 4-Cyano-6-methyl-pyridine-2-carboxylic acid (2-chloro-pyridin-4-yl)-amide] |
| 246.5 | 33 | Cc1cc(C#N)cc(C(=O)Nc2ccnc(F)c2)n1 [Example 48, 4-Cyano-6-methyl-pyridine-2-carboxylic acid (2-fluoro-pyridin-4-yl)-amide] |
| 147.5 | 6 | Cc1cc(C#N)cc(C(=O)Nc2cccc(Cl)c2)n1 [Example 26, 4-Cyano-6-methyl-pyridine-2-carboxylic acid (3-chloro-phenyl)-amide] |
| 211 | 15 | Cc1cc(C#N)cc(C(=O)Nc2nc(C)cs2)n1 [Example 3, 4-Cyano-6-methyl-pyridine-2-carboxylic acid (4-methyl-thiazol-2-yl)-amide] |
| 156 | 30 | Cc1cc(Cl)cc(C(=O)Nc2ccc(F)cn2)n1 [Example 18, 4-Chloro-6-methyl-pyridine-2-carboxylic acid (5-fluoro-pyridin-2-yl)-amide] |
